Experimental data as given in US5707833A, “Process of making cyclodextrin glucanotransferase with brevibacterium” (priority 1993, dated 1998).
Read-outs that look alike come from different tables or passages of the source.

System: cyclodextrin glucanotransferase (γ-CGTase, EC 2.4.1.19) of Brevibacterium sp. No. 9605
Assay type: biochemical
Experimental: (8) Activity measurement: In the measurements of the enzlanological properties described above, enzyme activity was measured by the following method. A 0.05 ml portion of an aqueous solution of the enzyme was added to 0.5 ml of a substrate solution (1.5% by weight soluble starch in 0.1M Atkins & Pantin buffer, pH 10.0) and incubated at 40° C. for 30 minutes. After adding 5 ml of 0.1N hydrochloric acid to terminate the reaction, a 0.5 ml portion of the reaction mixture was taken out and mixed with 5 ml of an iodine solution (0.005% iodine in 0.05% potassium iodide solution) to measure decrease in the absorbance at […]. One unit of the activity was defined as the amount of enzyme which decreases 1% of the absorbance at 660 nm within 1 minute under these conditions.

[1] = enzyme treated with 1 mM inhibitor at 40° C. for 10 minutes in 0.1M H3BO3·KCl-NaOH buffer (pH 8.0), control 100, activity on soluble starch, iodine method

Compound | Residual Activity (%) (pH 8) | Residual Activity (%) [1]
O=C(O)CI [MIA, monoiodoacetic acid] | 82% | 
CCN1C(=O)C=CC1=O [NEM, N-ethylmaleimide] |  | 84%
O=C(O)c1cc[c]([Hg][Cl])cc1 [PCMB, p-chloromercuribenzoic acid] |  | 83%
